Data as given in ChEMBL document CHEMBL1201862, “PubChem BioAssay data set” (2004).
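In this assay, cells in 96-well plates receive the compound at five concentrations for 48 hours. Endpoints are linearly interpolated between the surrounding concentrations. GI50 marks 50% less growth.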 The source made the active and inactive calls. Rule as the data show it: active = GI50 up to about 1.1 µM and inactive = higher.

Assays:
Assay in all cases: NCI anticancer screen, dose series, 48 h
[1] = test system: A498
[2] = test system: BT-549
[3] = test system: EKVX
[4] = test system: KM12
[5] = test system: M14
[6] = test system: MCF7
[7] = test system: MDA-MB-435
[8] = test system: MDA-N
[9] = test system: Malme-3M
[10] = test system: NCI-H23
[11] = test system: NCI/ADR-RES
[12] = test system: OVCAR-4
[13] = test system: PC-3
[14] = test system: RPMI-8226
[15] = test system: RXF 393
[16] = test system: SF-295
[17] = test system: SF-539
[18] = test system: SK-MEL-2
[19] = test system: SK-OV-3
[20] = test system: UO-31

Measured: GI50

CC(=O)OC1CCC2(C)C(=CCC3C4CCC5(OC6CC(C)CN(C(C)=O)C6C5C)C(C)=C4C(=O)C32)C1 (stereo not given)
inactive: [1] 15.8 µM | [2] 15 µM | [3] 7.96 µM | [4] 16.7 µM | [5] 12.7 µM | [6] 10.5 µM | [7] 15.3 µM | [8] 23.6 µM | [9] 15.2 µM | [10] 15 µM | [11] 18 µM | [12] 15.4 µM | [13] 14.3 µM | [14] 14.6 µM | [15] 16.6 µM | [16] 19.1 µM | [17] 20.4 µM | [18] 17.8 µM | [19] 26.5 µM | [20] 31.9 µM

COC(=O)/C=C/C(=O)Nc1cc(Cl)c(Cl)cc1CC(=O)N(C)[C@H]1CCCC[C@@H]1N1CCCC1
inactive: [1] 14.4 µM | [2] 12.9 µM | [3] 13.1 µM | [4] 22.1 µM | [5] 7.41 µM | [6] 3.49 µM | [7] 5.61 µM | [8] 6.61 µM | [9] 6.41 µM | [10] 13.8 µM | [11] 14.7 µM | [12] 8.63 µM | [13] 5.05 µM | [14] 2.63 µM | [15] 4.01 µM | [16] 18.3 µM | [17] 5.04 µM | [18] 7.29 µM | [19] 18.1 µM | [20] 4.52 µM

O=C(NNCC(F)(F)F)c1ccncc1
inactive: [1] > 100 µM | [2] > 100 µM | [3] > 100 µM | [4] > 100 µM | [5] > 100 µM | [6] > 100 µM | [7] > 100 µM | [8] > 100 µM | [9] > 100 µM | [10] > 100 µM | [11] > 100 µM | [12] > 100 µM | [13] > 100 µM | [14] > 100 µM | [15] > 100 µM | [16] > 100 µM | [17] > 100 µM | [18] > 100 µM | [19] > 100 µM | [20] > 100 µM

CC1c2ccccc2Cn2cc3c(c21)C(=O)c1cccc(OP(=O)(O)OCc2ccccc2)c1C3=O (stereo not given)
inactive: [1] > 100 µM | [2] > 100 µM | [3] > 66.1 µM | [4] > 100 µM | [5] > 100 µM | [6] 71.9 µM | [7] > 100 µM | [8] > 100 µM | [9] > 100 µM | [10] > 100 µM | [11] > 100 µM | [12] > 100 µM | [13] > 100 µM | [14] > 100 µM | [15] > 100 µM | [16] > 100 µM | [17] > 100 µM | [18] > 100 µM | [19] > 100 µM | [20] > 78.3 µM

COCn1c(C)c(C)c2c(=O)oc(N(C)C)nc21
inactive: [1] 39 µM | [2] > 100 µM | [3] > 100 µM | [4] > 100 µM | [5] > 100 µM | [6] > 100 µM | [7] > 100 µM | [8] > 100 µM | [9] > 100 µM | [10] > 100 µM | [11] > 100 µM | [12] > 100 µM | [13] > 100 µM | [14] > 100 µM | [15] > 100 µM | [16] > 100 µM | [17] > 100 µM | [18] > 100 µM | [19] > 100 µM | [20] 9.82 µM
